Test results as given in US6624179B1, “Geometrical isomers of acrylonitrile compounds, mixture thereof, and process for producing these” (Ishihara Sangyo Kaisha Ltd., priority 1999, dated 2003).
“Also recorded” adds a separate entry of the source.

Experiments:
[1] = test system: citrus red mite (Panonychus citri); assay: Test Example 1: spray application to satsuma mandarin infested with citrus red mite, greenhouse; type: in vivo; details: for Number of adult citrus red mite 7th day / Number of adult citrus red mite 12th day / Number of adult citrus red mite 18th day / Number of adult citrus red mite 26th day: 150 ppm active ingredient, sprayed; for Number of adult citrus red mite 7th day: 10% water-based suspension concentrate, 7th day after application; for Number of adult citrus red mite 12th day: 12th day after application; for Number of adult citrus red mite 18th day: 18th day after application; for Number of adult citrus red mite 26th day: 26th day after application; for pesticidal effects (in words): 150 ppm, citrus red mite on satsuma mandarin, conclusion from Table 1; for Number of adult citrus red mite Before application: baseline count before application, all leaves of satsuma mandarin tree
Text: A 10% water-based suspension concentrate of each of compound D and compound E was dispersed in water to obtain a chemical solution wherein the active ingredient is 150 ppm. Such a chemical solution was applied to satsuma mandarin (Citrus unshiu Marc.) infested with citrus red mite (Panonychus citri) (planted in a plastic pot having a diameter of 24 cm and a height of 29 cm) by means of a sprayer and then left to stand in a greenhouse. Before the application and on the 7th day, 12th day, 18th day and 26th day after the application, the number of adult citrus red mite on all leaves of the satsuma mandarin tree was counted.

[2] = test system: two-spotted spider mite (Tetranychus urticae); assay: Test Example 2: spray application to eggplant infested with two-spotted spider mite, greenhouse; type: in vivo; details: for Number of adult two-spotted spite mite 5th day / Number of adult two-spotted spite mite 9th day / Number of adult two-spotted spite mite 12th day / Number of adult two-spotted spite mite 15th day: 150 ppm active ingredient, sprayed; for Number of adult two-spotted spite mite 5th day: 10% water-based suspension concentrate in water with 0.02% spreader, 5th day after application; for Number of adult two-spotted spite mite 9th day: 9th day after application; for Number of adult two-spotted spite mite 12th day: 12th day after application; for Number of adult two-spotted spite mite 15th day: 15th day after application; for pesticidal effects (in words): 150 ppm, two-spotted spider mite on eggplant, conclusion from Table 2; for Number of adult two-spotted spite mite Before application: baseline count before application, on the eggplant
Text: A 10% water-based suspension concentrate of each of compounds H and G was dispersed in water containing 0.02% of a spreader (Shinrino, manufactured by NIHON NOHYAKU CO., LTD.) to obtain a chemical solution wherein the active ingredient was 150 ppm. Such a chemical solution was applied to an eggplant (Solanum melongena) infested with two-spotted spider mite (Tetranychus urticae) (planted in a plastic pot having a diameter of 17 cm and a height of 19 cm) by means of a sprayer, and then left to stand in a greenhouse. Before the application and on the 5th day, 9th day, 12th day and 15th day after the application, the number of adult two-spotted spider mite on the eggplant was counted.

Row | Structure (SMILES) | Number of adult citrus red mite 7th day [1] | Number of adult citrus red mite 12th day [1] | Number of adult citrus red mite 18th day [1] | Number of adult citrus red mite 26th day [1] | pesticidal effects (in words) [1] | Number of adult citrus red mite Before application [1] | Number of adult two-spotted spite mite 5th day [2] | Number of adult two-spotted spite mite 9th day [2] | Number of adult two-spotted spite mite 12th day [2] | Number of adult two-spotted spite mite 15th day [2] | pesticidal effects (in words) [2] | Number of adult two-spotted spite mite Before application [2]
1 | CSC(=O)OC(=C(C#N)c1ccc(C(C)(C)C)cc1)c1ccccc1C(F)(F)F [Compound D, α-(4-tert-Butylphenyl)-β-[(methylthio)carbonyloxy]-β-(2-trifluoromethylphenyl)acrylonitrile] | 0 | 4 | 2 | 65 | excellent pesticidal effects | 111 | – | – | – | – | – | –
2 | CSC(=O)OC(=C(C#N)c1ccc(C(C)(C)C)cc1)c1ccccc1C(F)(F)F [Compound E, α-(4-tert-Butylphenyl)-β-[(methylthio)carbonyloxy]-β-(2-trifluoromethylphenyl)acrylonitrile] | 0 | 2 | 1 | 4 | excellent pesticidal effects; also recorded: superior pesticidal effects | 106 | – | – | – | – | – | –
3 | CSC(=S)OC(=C(C#N)c1ccc(Cl)cc1)c1ccccc1C(F)(F)F [Compound G, α-(4-Chlorophenyl)-β-(S-methyldithiocarbonyloxy)-β-(2-trifluoromethylphenyl)acrylonitrile] | – | – | – | – | – | – | 1 | 0 | 2 | 4 | excellent pesticidal effects; also recorded: superior pesticidal effects | 106
4 | CSC(=S)OC(=C(C#N)c1ccc(Cl)cc1)c1ccccc1C(F)(F)F [H, α-(4-chlorophenyl)-β-(S-methyldithiocarbonyloxy)-β-(2-trifluoromethylphenyl)acrylonitrile] | – | – | – | – | – | – | 0 | 1 | 18 | 42 | excellent pesticidal effects | 111
